The test concerns the target Angiotensin-converting enzyme (Homo sapiens, UniProt P12821). As to the kind of experiment: Compound was tested for its inhibitory potency against angiotensin I converting enzyme.

Sequence of Angiotensin-converting enzyme (P12821 whole entry): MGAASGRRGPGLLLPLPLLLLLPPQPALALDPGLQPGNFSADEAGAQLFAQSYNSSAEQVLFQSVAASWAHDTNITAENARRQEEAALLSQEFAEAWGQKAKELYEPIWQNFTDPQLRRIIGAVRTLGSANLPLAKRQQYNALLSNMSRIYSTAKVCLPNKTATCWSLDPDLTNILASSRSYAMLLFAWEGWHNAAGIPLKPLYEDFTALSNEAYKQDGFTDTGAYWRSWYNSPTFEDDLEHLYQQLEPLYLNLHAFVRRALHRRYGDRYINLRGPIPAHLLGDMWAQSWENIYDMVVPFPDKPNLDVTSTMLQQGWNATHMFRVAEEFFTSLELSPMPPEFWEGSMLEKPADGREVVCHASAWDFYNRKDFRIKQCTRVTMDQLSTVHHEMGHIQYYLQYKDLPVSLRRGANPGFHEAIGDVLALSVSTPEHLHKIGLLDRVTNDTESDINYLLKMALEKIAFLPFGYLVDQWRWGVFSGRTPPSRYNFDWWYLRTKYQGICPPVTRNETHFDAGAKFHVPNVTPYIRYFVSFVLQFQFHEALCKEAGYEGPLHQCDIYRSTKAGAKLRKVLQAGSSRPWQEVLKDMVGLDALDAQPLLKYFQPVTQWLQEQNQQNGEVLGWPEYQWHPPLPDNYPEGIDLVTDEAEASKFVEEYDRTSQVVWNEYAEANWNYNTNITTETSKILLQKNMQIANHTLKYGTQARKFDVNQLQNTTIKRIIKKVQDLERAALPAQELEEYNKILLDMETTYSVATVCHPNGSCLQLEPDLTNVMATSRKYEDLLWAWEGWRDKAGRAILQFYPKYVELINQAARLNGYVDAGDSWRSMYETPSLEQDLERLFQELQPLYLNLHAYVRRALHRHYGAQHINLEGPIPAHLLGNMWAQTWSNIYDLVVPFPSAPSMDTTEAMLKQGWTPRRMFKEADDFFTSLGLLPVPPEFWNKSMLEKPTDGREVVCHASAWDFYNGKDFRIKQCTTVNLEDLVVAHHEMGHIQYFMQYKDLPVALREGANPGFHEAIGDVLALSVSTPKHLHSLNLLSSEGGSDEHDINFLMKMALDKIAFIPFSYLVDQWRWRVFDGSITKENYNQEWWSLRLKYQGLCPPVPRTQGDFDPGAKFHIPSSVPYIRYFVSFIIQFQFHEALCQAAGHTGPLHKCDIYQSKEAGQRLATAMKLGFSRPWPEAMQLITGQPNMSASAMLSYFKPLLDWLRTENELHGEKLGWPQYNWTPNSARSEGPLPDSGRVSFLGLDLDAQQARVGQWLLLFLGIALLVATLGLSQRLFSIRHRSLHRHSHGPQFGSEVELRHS

Regarding `O=C(O)C(CCc1ccccc1)NC1Cc2ccccc2[C@H]2CCC[C@@H](C(=O)O)N2C1=O` (stereo partly specified), the Ki was 1.2 nM.

As a reminder, the Ki is the dissociation constant of the complex between target and ligand, obtained from inhibition or displacement. Higher therefore signals weaker binding.

For the origin of these results see ChEMBL document CHEMBL1125229 (J Med Chem, 1991).
